In one assay the test system is OVCAR3 p-RB. Kind of assay: pRB ICW Assay in OVCAR3 Cells. The settings on record: Homo sapiens, OVCAR-3, incubated with compound for 2 hours. The format is cell-based. The gist of the method:
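In-Cell Western on OVCAR3: phospho-RB antibody signal with DRAQ5 counterstain read at 700 and 800 nm after fixation. Compounds were applied for 2 h at 37° C. as 9-point ½-log dilutions in duplicate; 10 μM reference compound defined full inhibition.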

The target of a further assay is T1, CDK4/Cyclin D1 (Homo sapiens, UniProt P11802).
T1 construct: purchased ProQinase; host or cells: insect cell
T1 sequence (P11802 whole entry): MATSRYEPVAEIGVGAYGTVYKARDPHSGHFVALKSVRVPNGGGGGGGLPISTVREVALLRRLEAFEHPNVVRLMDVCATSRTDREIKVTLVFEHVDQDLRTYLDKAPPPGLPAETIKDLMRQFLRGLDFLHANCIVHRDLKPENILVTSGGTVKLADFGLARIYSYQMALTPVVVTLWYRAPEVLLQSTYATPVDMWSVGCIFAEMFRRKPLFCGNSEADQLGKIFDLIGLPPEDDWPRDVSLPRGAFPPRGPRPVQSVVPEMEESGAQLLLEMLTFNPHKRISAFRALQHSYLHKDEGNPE
T1 sequence (P24385 whole entry partner): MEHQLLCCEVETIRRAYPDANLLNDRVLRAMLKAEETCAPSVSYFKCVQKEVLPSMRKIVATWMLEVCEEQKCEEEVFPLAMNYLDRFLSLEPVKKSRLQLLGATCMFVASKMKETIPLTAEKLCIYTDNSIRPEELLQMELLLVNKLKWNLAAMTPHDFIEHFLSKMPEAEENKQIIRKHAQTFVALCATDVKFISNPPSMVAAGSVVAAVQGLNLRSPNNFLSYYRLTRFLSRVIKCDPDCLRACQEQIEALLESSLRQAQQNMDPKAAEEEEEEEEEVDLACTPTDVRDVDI
The experiment in a line: CDK4/CyclinD1 Enzymatic Activity Assay (TR-FRET). The class given is biochemical. The settings on record: ATP 2 mM final, read-out: CDK4_D1 IC50. Here is the method: CDK4/CyclinD1 Enzymatic Activity Assay
The inhibitory activity of compounds was evaluated in vitro using TR-FRET assay with white 384-well low volume microplate (Greiner Bio-One). CDK4/Cyclin D1 catalyzed phosphorylation of peptide in the presence and absence of compounds was measured and used in IC50 determination. Recombinant protein complex CDK4/Cyclin D1, expressed from insect cell, was purchased from ProQinase. Testing compounds were dissolved in DMSO at 1 mM and tested in 9-dose IC50 mode. The reaction mixture was prepared by mixing CDK4/CyclinD1 (1 nM final), ULight-4E-BP1 (100 nM final, Perkinelmer, TRF0128-D), and ATP (2 mM final) in assay buffer (20 mM of HEPES pH 7.4, 1 mM of EGTA, 0.05% BSA, 0.005% Tween 20, and 1 mM TCEP). The compound of interest in DMSO was added to each well in 3-fold serial dilution by the dispenser (TECAN D300E) to make a 9.9 μL of reaction mixture. After 20 minutes preincubation at room temperature, 0.1 μL MgCl2 (10 mM final) was added to initiate the reaction. Following a 45-minute incubation at 37° C., the reaction was stopped by addition of 2 μL of quenching buffer consisting of Lance detection buffer (Perkinelmer CR97-100C), LANCE Ultra Europium-anti-P-4E-BP1 (Perkinelmer, TRF0216-D), EDTA, and incubated at room temperature for additional 60 minutes in dark. The reaction signal was measured by Envision multimode plate reader (PerkinElmer, 2102-0010). IC50 values were determined by fitting the data to the standard 4 parameters with Hill Slope using GraphPad Prism software.
(In TR-FRET formats the signal depends on donor and acceptor labels being close together.)

For the next assay, the target named is T2, CDK2/Cyclin E2 (Homo sapiens, UniProt P24941).
T2 construct: Recombinant protein complex CDK2/Cyclin E2, expressed from insect cell, was purchased from ProQinase
Kind of assay: CDK2/CyclinE2 Enzymatic Activity Assay (TR-FRET). The class given is biochemical. The settings on record: ATP 1 mM final, read-out: CDK2_E1 IC50. The gist of the method:
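Recombinant insect-cell CDK2/Cyclin E2 (1 nM) phosphorylated ULight-4E-BP1 (50 nM) with 1 mM ATP in HEPES pH 7.4 buffer, after 20 min compound preincubation; MgCl2 (10 mM) started the 45 min reaction at 37° C. Europium anti-phospho-4E-BP1 TR-FRET read; 9-dose IC50 by 4-parameter fit.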

As to `Cc1sc(-c2nc(N[C@@H]3CCN(S(=O)(=O)c4cnn(C)c4)C[C@H]3F)ncc2C(F)(F)F)cc1C(N)=O` [Example 17, 5-(2-(((3R,4R)-3-fluoro-1-((1-methyl-1H-pyrazol-4-yl)sulfonyl)piperidin-4-yl)amino)-5-(trifluoromethyl)pyrimidin-4-yl)-2-methylthiophene-3-carboxamide], the IC50 in the assay with OVCAR3 p-RB, on CDK4/Cyclin D1 and on CDK2/Cyclin E2 was not above 100 nM each time.

Turning to `C[C@@H]1CN(S(=O)(=O)c2cnn(CC#N)c2)CC[C@@H]1Nc1ncc(C(F)(F)F)c(-c2cc(C(N)=O)cs2)n1` [Example 87, 5-(2-(((3R,4S)-1-((1-(Cyanomethyl)-1H-pyrazol-4-yl)sulfonyl)-3-methylpiperidin-4-yl)amino)-5-(trifluoromethyl)pyrimidin-4-yl)thiophene-3-carboxamide], the IC50 with OVCAR3 p-RB, on CDK4/Cyclin D1 and at CDK2/Cyclin E2 was not above 100 nM in each case.

As for `Cc1cnc(-c2nc(N[C@H]3CCN(S(=O)(=O)c4cnn(C)c4)C[C@H]3F)ncc2C(F)(F)F)s1` [Example 26, N-((3R,4S)-3-fluoro-1-((1-methyl-1H-pyrazol-4-yl)sulfonyl)piperidin-4-yl)-4-(5-methylthiazol-2-yl)-5-(trifluoromethyl)pyrimidin-2-amine], the IC50 in the assay on OVCAR3 p-RB, at CDK4/Cyclin D1 and on CDK2/Cyclin E2 was not above 100 nM throughout.

With `Cn1cnc(S(=O)(=O)N2CC[C@@H](Nc3ncc(C(F)(F)F)c(-c4cc(C(N)=O)ns4)n3)[C@H](F)C2)c1` [Example 66, 5-(2-(((3R,4R)-3-fluoro-1-((1-methyl-1H-imidazol-4-yl)sulfonyl)piperidin-4-yl)amino)-5-(trifluoromethyl)pyrimidin-4-yl)isothiazole-3-carboxamide], the IC50 with OVCAR3 p-RB, on CDK4/Cyclin D1 and on CDK2/Cyclin E2 was not above 100 nM in each case.

Regarding `Cn1cc(S(=O)(=O)N2CCC(Nc3ncc(C(F)(F)F)c(-c4nccs4)n3)CC2)cn1` [Example 58, N-(1-((1-methyl-1H-pyrazol-4-yl)sulfonyl)piperidin-4-yl)-4-(thiazol-2-yl)-5-(trifluoromethyl)pyrimidin-2-amine], the IC50 in the assay on OVCAR3 p-RB was 100 to 500 nM; on CDK4/Cyclin D1, not above 100 nM; at CDK2/Cyclin E2, not above 100 nM.

For the molecule `Cn1cnc(S(=O)(=O)N2CCC(Nc3ncc(C(F)(F)F)c(-c4nccs4)n3)CC2)c1` [Example 59, N-(1-((1-methyl-1H-imidazol-4-yl)sulfonyl)piperidin-4-yl)-4-(thiazol-2-yl)-5-(trifluoromethyl)pyrimidin-2-amine], the IC50 in the assay with OVCAR3 p-RB, on CDK4/Cyclin D1 and at CDK2/Cyclin E2 was not above 100 nM in each case.

For `C[C@@H]1CN(S(C)(=O)=O)CC[C@@H]1Nc1ncc(C(F)(F)F)c(-c2ncc(C(C)(C)O)s2)n1` [Example 132, 2-(2-(2-(((3R,4S)-3-methyl-1-(methylsulfonyl)piperidin-4-yl)amino)-5-(trifluoromethyl)pyrimidin-4-yl)thiazol-5-yl)propan-2-ol], the IC50 was more than 500 nM with OVCAR3 p-RB, 100 to 500 nM at CDK4/Cyclin D1 and not above 100 nM at CDK2/Cyclin E2.

Turning to `Cc1cnc(-c2nc(NC3CCN(S(=O)(=O)c4cn(C)cn4)CC3)ncc2C(F)(F)F)s1` [Example 32, N-(1-((1-methyl-1H-imidazol-4-yl)sulfonyl)piperidin-4-yl)-4-(5-methylthiazol-2-yl)-5-(trifluoromethyl)pyrimidin-2-amine], the IC50 in the assay with OVCAR3 p-RB, at CDK4/Cyclin D1 and at CDK2/Cyclin E2 was not above 100 nM in each case.

For the molecule `Cc1sc(-c2nc(NC3CCN(S(=O)(=O)c4cnn(C)c4)CC3)ncc2C(F)(F)F)cc1C(N)=O` [Example 71, 2-methyl-5-(2-((1-((1-methyl-1H-pyrazol-4-yl)sulfonyl)piperidin-4-yl)amino)-5-(trifluoromethyl)pyrimidin-4-yl)thiophene-3-carboxamide], the IC50 with OVCAR3 p-RB, on CDK4/Cyclin D1 and at CDK2/Cyclin E2 was not above 100 nM throughout.

Turning to `C[C@@H]1CN(S(C)(=O)=O)CC[C@@H]1Nc1ncc(C(F)(F)F)c(-c2cc(C(N)=O)c(CC(C)(C)O)s2)n1` [Example 43, 2-(2-hydroxy-2-methylpropyl)-5-(2-(((3R,4S)-3-methyl-1-(methylsulfonyl)piperidin-4-yl)amino)-5-(trifluoromethyl)pyrimidin-4-yl)thiophene-3-carboxamide], the IC50 is more than 500 nM in the assay with OVCAR3 p-RB, 100 to 500 nM on CDK4/Cyclin D1 and not above 100 nM on CDK2/Cyclin E2.

As for `CC(O)(c1cnc(-c2nc(NC3CCN(S(C)(=O)=O)CC3)ncc2C(F)(F)F)s1)C(F)(F)F` (stereo not drawn) [Example 103, 1,1,1-trifluoro-2-(2-(2-((1-(methylsulfonyl)piperidin-4-yl)amino)-5-(trifluoromethyl)pyrimidin-4-yl)thiazol-5-yl)propan-2-ol], the IC50 in the assay on OVCAR3 p-RB, at CDK4/Cyclin D1 and at CDK2/Cyclin E2 was not above 100 nM each time.

For the molecule `CC(O)c1cnc(-c2nc(NC3CCN(S(=O)(=O)c4cnn(C)c4)CC3)ncc2C(F)(F)F)s1` (stereo not drawn) [Example 89, 1-(2-(2-((1-((1-Methyl-1H-pyrazol-4-yl)sulfonyl)piperidin-4-yl)amino)-5-(trifluoromethyl)pyrimidin-4-yl)thiazol-5-yl)ethan-1-ol], the IC50 in the assay on OVCAR3 p-RB, on CDK4/Cyclin D1 and on CDK2/Cyclin E2 was not above 100 nM each time.

Take `CC(O)c1sc(-c2nc(NC3CCN(S(=O)(=O)c4cnn(C)c4)CC3)ncc2C(F)(F)F)cc1C#N` (stereo not drawn) [Example 90, 2-(1-Hydroxyethyl)-5-(2-((1-((1-methyl-1H-pyrazol-4-yl)sulfonyl)piperidin-4-yl)amino)-5-(trifluoromethyl)pyrimidin-4-yl)thiophene-3-carbonitrile]: the IC50 in the assay on OVCAR3 p-RB, at CDK4/Cyclin D1 and at CDK2/Cyclin E2 was not above 100 nM in each case.

As for `Cn1cc(S(=O)(=O)N2CCC(Nc3ncc(C(F)(F)F)c(-c4cc(C#N)cs4)n3)CC2)cn1` [Example 69, 5-(2-((1-((1-Methyl-1H-pyrazol-4-yl)sulfonyl)piperidin-4-yl)amino)-5-(trifluoromethyl)pyrimidin-4-yl)thiophene-3-carbonitrile], the IC50 with OVCAR3 p-RB is not above 100 nM; at CDK4/Cyclin D1, 100 to 500 nM; on CDK2/Cyclin E2, not above 100 nM.

As to `C[C@@H]1CN(S(=O)(=O)c2c[nH]cn2)CC[C@@H]1Nc1ncc(C(F)(F)F)c(-c2cc(C(N)=O)cs2)n1` [Example 21, 5-(2-(((3R,4S)-1-((1H-imidazol-4-yl)sulfonyl)-3-methylpiperidin-4-yl)amino)-5-(trifluoromethyl)pyrimidin-4-yl)thiophene-3-carboxamide], the figures for the IC50 in the assay with OVCAR3 p-RB, at CDK4/Cyclin D1 and at CDK2/Cyclin E2 were 100 to 500 nM, 100 to 500 nM and not above 100 nM, respectively.

Take `Cn1cnc(S(=O)(=O)N2CCC(Nc3ncc(C(F)(F)F)c(-c4ncc(CC(C)(C)O)s4)n3)CC2)c1` [Example 3, 2-Methyl-1-(2-(2-((1-((1-methyl-1H-imidazol-4-yl)sulfonyl)piperidin-4-yl)amino)-5-(trifluoromethyl)pyrimidin-4-yl)thiazol-5-yl)propan-2-ol]: the IC50 in the assay on OVCAR3 p-RB, on CDK4/Cyclin D1 and at CDK2/Cyclin E2 was not above 100 nM throughout.

The IC50 is the concentration that gives 50% inhibition.

The values above are taken from patent US20240150340A1, “CDK Inhibitors And Their Use As Pharmaceuticals” (Prelude Therapeutics Incorporated, priority 2022, published 2024).
